Measured values as given in US11384078B2, “5,6-fused-bicyclic compounds and compositions for the treatment of parasitic diseases” (NOVARTIS AG, priority 2017, dated 2022).

What was measured:
Assay type in all cases: cell-based
[1] = test system: Leishmania donovani axenic amastigote; test: In vitro assay for growth inhibition of Leishmania donovani axenic amastigote (Cell TiterGlo luminescence); conditions: Leishmania donovani, L. donovani axenic amastigotes in vitro; read-out: L. donovani amastigotes EC50
In short: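 Compound-treated wells received 9600 axenic amastigotes in RPMI 1640-based medium at pH 5.5 (37 °C, 5% CO2). Growth measured as ATP luminescence (CellTiter-Glo) after 2-day incubation; DMSO and reference compounds served as controls.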

[2] = test system: L. donovani HU3 strain in mouse peritoneal macrophages; test: Assay for inhibition of parasitemia of Leishmania donovani in mouse macrophages (SYBR Green nuclei count, high-content imaging); conditions: Leishmania donovani, Peritoneal macrophage, L. donovani in mouse peritoneal macrophages; read-out: L. donovani in Mouse Macrophages EC50
In short: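 Parasite numbers were counted from SYBR Green-stained nuclei imaged by high-content microscopy after paraformaldehyde fixation and Triton permeabilization. Before this, compound was applied for 5 days at 37° C to BALB/c peritoneal macrophages (2×10^4/well) that had been exposed 24 h to 4×10^5 L. donovani HU3 amastigotes harvested from infected mouse spleens.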

[3] = test system: Trypanosoma cruzi amastigotes cultured in 3T3 fibroblast cells; test: Assay for growth inhibition of kinetoplastid parasite Trypanosoma cruzi (beta-galactosidase Tulahuen strain, CPRG readout); conditions: Trypanosoma cruzi, Fibroblast, T. cruzi amastigotes in 3T3 fibroblast cells; read-out: Buckner infectious T. cruzi EC50
In short: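 3T3 fibroblasts (1,000 cells/well) plated overnight, treated with compound in DMSO, then infected with 10,000 Lac-Z-expressing Tulahuen trypomastigotes. After 6 days, 0.6 mM CPRG with 0.6% NP-40 added for 2 h at room temperature; absorbance gives relative intracellular amastigote numbers. Benznidazole and nifurtimox serve as positive controls.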

[4] = test system: Trypanosoma brucei brucei (Lister 427) strain; test: Assay for growth inhibition against Trypanosoma brucei brucei (Cell TiterGlo ATP luminescence); conditions: Trypanosoma brucei, T. brucei brucei (Lister 427); read-out: T. Brucei (HAT) EC50
In short: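 Growth read-out is cellular ATP by CellTiter-Glo luminescence, measured 30 min after reagent addition, following 2-day incubation at 37 °C in CO2. Parasites (10,000/mL, HMI-9 plus 10% FBS and 10% serum plus) faced 10 threefold dilutions in duplicate; IC50 taken as 50% growth inhibition versus untreated.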

## CNC(=O)Nc1ccc(F)c(-n2cc3cc(NC)cnc3n2)c1 [Compound 142, 1-{4-fluoro-3-[5-(methylamino)-2H-pyrazolo[3,4-b]pyridin-2-yl]phenyl}-3-methylurea]
[1]
  EC50: 7800 nM
[2]
  EC50: 9200 nM
[3]
  EC50: 11000 nM
[4]
  EC50: 4300 nM

## O=C(Nc1ccc(F)c(-n2cc3cc(N4CCC4)cnc3n2)c1)N1CC(F)(F)C1 [Compound 144, N-{3-[5-(azetidin-1-yl)-2H-pyrazolo[3,4-b]pyridin-2-yl]-4-fluorophenyl}-3,3-difluoroazetidine-1-carboxamide]
[1]
  EC50: 23 nM
[2]
  EC50: 23 nM
[3]
  EC50: 17 nM
[4]
  EC50: < 23 nM

## O=C(Nc1ccc(F)c(-n2cc3cc(N4CCOCC4)cnc3n2)c1)N1CC(F)(F)C1 [Compound 145, 3,3-difluoro-N-{4-fluoro-3-[5-(morpholin-4-yl)-2H-pyrazolo[3,4-b]pyridin-2-yl]phenyl}azetidine-1-carboxamide]
[1]
  EC50: 5.4 nM
[2]
  EC50: 4.7 nM
[3]
  EC50: 18 nM
[4]
  EC50: < 23 nM

## CC(C)OC(=O)Nc1cnc2nn(-c3cc(NC(=O)N4CC(F)(F)C4)ccc3F)cc2c1 [Compound 146, propan-2-yl N-(2-{5-[(3,3-difluoroazetidine-1-carbonyl)amino]-2-fluorophenyl}-2H-pyrazolo[3,4-b]pyridin-5-yl)carbamate]
[1]
  EC50: 26 nM
[2]
  EC50: 12 nM
[3]
  EC50: 85 nM
[4]
  EC50: < 23 nM

## O=C(Nc1ccc(F)c(-n2cc3cc(N4CCC4)cnc3n2)c1)N1CC(F)C1 [Compound 147, N-{3-[5-(azetidin-1-yl)-2H-pyrazolo[3,4-b]pyridin-2-yl]-4-fluorophenyl}-3-fluoroazetidine-1-carboxamide]
[1]
  EC50: 6.1 nM
[2]
  EC50: 26 nM
[3]
  EC50: 4.8 nM
[4]
  EC50: < 23 nM

## O=C(Nc1ccc(F)c(-n2cc3cc(C4CCOCC4)cnc3n2)c1)N1CC(F)C1 [Compound 148, 3-fluoro-N-{4-fluoro-3-[5-(oxan-4-yl)-2H-pyrazolo[3,4-b]pyridin-2-yl]phenyl}azetidine-1-carboxamide]
[1]
  EC50: 8.1 nM
[2]
  EC50: 12 nM
[3]
  EC50: 14 nM
[4]
  EC50: < 23 nM

## O=C(Nc1ccc(F)c(-n2cc3cc(N4CCC4)cnc3n2)c1)N1CC[C@@H](F)C1 [Compound 149]
[1]
  EC50: 11 nM
[2]
  EC50: 7.9 nM
[3]
  EC50: 5.4 nM
[4]
  EC50: < 23 nM

## O=C(Nc1ccc(F)c(-n2cc3cc(C4CCOCC4)cnc3n2)c1)N1CC[C@@H](F)C1 [Compound 150, (R)-3-fluoro-N-(4-fluoro-3-(5-(tetrahydro-2H-pyran-4-yl)-2H-pyrazolo[3,4-b]pyridin-2-yl)phenyl)pyrrolidine-1-carboxamide]
[1]
  EC50: 14 nM
[2]
  EC50: 25 nM
[3]
  EC50: 21 nM
[4]
  EC50: < 23 nM

## O=C(Nc1ccc(F)c(-n2cc3cc(N4CCC4)cnc3n2)c1)c1ccco1 [Compound 151, N-{3-[5-(azetidin-1-yl)-2H-pyrazolo[3,4-b]pyridin-2-yl]-4-fluorophenyl}furan-2-carboxamide]
[1]
  EC50: 60 nM
[2]
  EC50: 13 nM
[3]
  EC50: 12 nM
[4]
  EC50: < 23 nM

## O=C(Nc1ccc(F)c(-n2cc3cc(CC(F)(F)F)cnc3n2)c1)N1CC(F)C1 [Compound 152, 3-fluoro-N-(4-fluoro-3-(5-(2,2,2-trifluoroethyl)-2H-pyrazolo[3,4-b]pyridin-2-yl)phenyl)azetidine-1-carboxamide]
[1]
  EC50: 3.7 nM
[2]
  EC50: 5.3 nM
[3]
  EC50: 1.7 nM
[4]
  EC50: < 23 nM

## CNc1cnc2nn(-c3cc(NC(=O)c4oc(C)nc4C)ccc3F)cc2c1 [Compound 153, N-{4-fluoro-3-[5-(methylamino)-2H-pyrazolo[3,4-b]pyridin-2-yl]phenyl}-2,4-dimethyl-1,3-oxazole-5-carboxamide]
[1]
  EC50: 210 nM
[2]
  EC50: 27000 nM
[3]
  EC50: 150 nM
[4]
  EC50: 500 nM

## Cc1nc(C)c(C(=O)Nc2ccc(F)c(-n3cc4cc(N(C)C)cnc4n3)c2)o1 [Compound 154, N-{3-[5-(dimethylamino)-2H-pyrazolo[3,4-b]pyridin-2-yl]-4-fluorophenyl}-2,4-dimethyl-1,3-oxazole-5-carboxamide]
[1]
  EC50: 53 nM
[2]
  EC50: 78 nM
[3]
  EC50: 23 nM
[4]
  EC50: 37 nM

## Cc1nc(C)c(C(=O)Nc2ccc(F)c(-n3cc4cc(N5CCC5)cnc4n3)c2)o1 [Compound 155, N-{3-[5-(azetidin-1-yl)-2H-pyrazolo[3,4-b]pyridin-2-yl]-4-fluorophenyl}-2,4-dimethyl-1,3-oxazole-5-carboxamide]
[1]
  EC50: 53 nM
[2]
  EC50: 22 nM
[3]
  EC50: 18 nM
[4]
  EC50: < 23 nM

## Cc1nc(C)c(C(=O)Nc2ccc(F)c(-n3cc4cc(N5CCCC5)cnc4n3)c2)o1 [Compound 157, N-{4-fluoro-3-[5-(pyrrolidin-1-yl)-2H-pyrazolo[3,4-b]pyridin-2-yl]phenyl}-2,4-dimethyl-1,3-oxazole-5-carboxamide]
[1]
  EC50: 25 nM
[2]
  EC50: 18 nM
[3]
  EC50: 13 nM
[4]
  EC50: < 23 nM

## Cc1nc(C)c(C(=O)Nc2ccc(F)c(-n3cc4cc(N5CCOCC5)cnc4n3)c2)o1 [Compound 158, N-{4-fluoro-3-[5-(morpholin-4-yl)-2H-pyrazolo[3,4-b]pyridin-2-yl]phenyl}-2,4-dimethyl-1,3-oxazole-5-carboxamide]
[1]
  EC50: 16 nM
[2]
  EC50: 16 nM
[3]
  EC50: 15 nM
[4]
  EC50: < 23 nM

## Cc1nc(C)c(C(=O)Nc2ccc(F)c(-n3cc4cc(NC(=O)OC(C)C)cnc4n3)c2)o1 [Compound 159, propan-2-yl N-{2-[5-(dimethyl-1,3-oxazole-5-amido)-2-fluorophenyl}-2H-pyrazolo[3,4-b]pyridin-5-yl}carbamate]
[1]
  EC50: 13 nM
[2]
  EC50: 17 nM
[3]
  EC50: 37 nM
[4]
  EC50: < 23 nM

## O=C(Nc1ccc(F)c(-n2cc3cc(C4CCOCC4)cnc3n2)c1)N1CCC1 [Compound 160, N-{4-fluoro-3-[5-(oxan-4-yl)-2H-pyrazolo[3,4-b]pyridin-2-yl]phenyl}azetidine-1-carboxamide]
[1]
  EC50: 4.3 nM
[2]
  EC50: 9.8 nM
[3]
  EC50: 5.1 nM
[4]
  EC50: < 23 nM

## O=C(Nc1ccc(F)c(-n2cc3cc(N4CCCC4)cnc3n2)c1)N1CC(F)(F)C1 [Compound 161, 3,3-difluoro-N-{4-fluoro-3-[5-(pyrrolidin-1-yl)-2H-pyrazolo[3,4-b]pyridin-2-yl]phenyl}azetidine-1-carboxamide]
[1]
  EC50: 7.7 nM
[2]
  EC50: 7.3 nM
[3]
  EC50: 9.8 nM
[4]
  EC50: < 23 nM

## O=C(Nc1ccc(F)c(-n2cc3cc(CC(F)(F)F)cnc3n2)c1)N1CC[C@@H](F)C1 [Compound 162, (3R)-3-fluoro-N-{4-fluoro-3-[5-(2,2,2-trifluoroethyl)-2H-pyrazolo[3,4-b]pyridin-2-yl]phenyl}pyrrolidine-1-carboxamide]
[1]
  EC50: 7 nM
[2]
  EC50: 4.5 nM
[3]
  EC50: 1.8 nM
[4]
  EC50: < 23 nM

## O=C(Nc1ccc(F)c(-n2cc3cc(N4CCCC4)cnc3n2)c1)N1CCC1 [Compound 163, N-{4-fluoro-3-[5-(pyrrolidin-1-yl)-2H-pyrazolo[3,4-b]pyridin-2-yl]phenyl}azetidine-1-carboxamide]
[1]
  EC50: 5.8 nM
[2]
  EC50: 4.1 nM
[3]
  EC50: 2.7 nM
[4]
  EC50: < 23 nM

## O=C(Nc1ccc(F)c(-n2cc3cc(CC(F)(F)F)cnc3n2)c1)N1CCC1 [Compound 164, N-{4-fluoro-3-[5-(2,2,2-trifluoroethyl)-2H-pyrazolo[3,4-b]pyridin-2-yl]phenyl}azetidine-1-carboxamide]
[1]
  EC50: 6 nM
[2]
  EC50: 10 nM
[3]
  EC50: 1.7 nM
[4]
  EC50: < 23 nM

## O=C(Nc1ccc(F)c(-n2cc3cc(C4CCOCC4)cnc3n2)c1)N1CC(F)(F)C1 [Compound 165, 3,3-difluoro-N-{4-fluoro-3-[5-(oxan-4-yl)-2H-pyrazolo[3,4-b]pyridin-2-yl]phenyl}azetidine-1-carboxamide]
[1]
  EC50: 10 nM
[2]
  EC50: 10 nM
[3]
  EC50: 40 nM
[4]
  EC50: < 23 nM

## O=C(Nc1ccc(F)c(-n2cc3cc(CC(F)(F)F)cnc3n2)c1)N1CC(F)(F)C1 [Compound 166, 3,3-difluoro-N-{4-fluoro-3-[5-(2,2,2-trifluoroethyl)-2H-pyrazolo[3,4-b]pyridin-2-yl]phenyl}azetidine-1-carboxamide]
[1]
  EC50: 2.5 nM
[2]
  EC50: 3.7 nM
[3]
  EC50: 1.7 nM
[4]
  EC50: < 23 nM

## CN(C)c1cnc2nn(-c3cc(NC(=O)N4CC(F)C4)ccc3F)cc2c1 [Compound 167, N-{3-[5-(dimethylamino)-2H-pyrazolo[3,4-b]pyridin-2-yl]-4-fluorophenyl}-3-fluoroazetidine-1-carboxamide]
[1]
  EC50: 2.9 nM
[2]
  EC50: 8.2 nM
[3]
  EC50: 2.2 nM
[4]
  EC50: < 23 nM

## CC(C)OC(=O)Nc1cnc2nn(-c3cc(NC(=O)N4CC(F)C4)ccc3F)cc2c1 [Compound 168, Isopropyl (2-(2-fluoro-5-(3-fluoroazetidine-1-carboxamido)phenyl)-2H-pyrazolo[3,4-b]pyridin-5-yl)carbamate]
[1]
  EC50: 3.2 nM
[2]
  EC50: 8.2 nM
[3]
  EC50: 27 nM
[4]
  EC50: < 23 nM
